Test results: publication PMC5392334, “Discovery and characterization of a novel irreversible EGFR mutants selective and potent kinase inhibitor CHMFL-EGFR-26 with a distinct binding mode” (Oncotarget, 2017)

Columns and labels:
RIPK4 = molecular target: T1, RIPK4 (Homo sapiens, UniProt P57078); assay: KinomeScan; assay type: binding; conditions: read-out: % control
T1 construct: purchased DiscoveRx KINOMEscan

PAK4 = molecular target: T2, PAK4 (Homo sapiens, UniProt O96013); assay: KinomeScan; assay type: binding; conditions: read-out: % control
T2 construct: purchased DiscoveRx KINOMEscan

WNK2 = molecular target: T3, WNK2 (Homo sapiens, UniProt Q9Y3S1); assay: KinomeScan; assay type: binding; conditions: read-out: % control
T3 construct: purchased DiscoveRx KINOMEscan

ROCK2 = molecular target: T4, ROCK2 (Homo sapiens, UniProt O75116); assay: KinomeScan; assay type: binding; conditions: read-out: % control
T4 construct: purchased DiscoveRx KINOMEscan

NEK10 = molecular target: T5, NEK10 (Homo sapiens, UniProt Q6ZWH5); assay: KinomeScan; assay type: binding; conditions: read-out: % control
T5 construct: purchased DiscoveRx KINOMEscan

TIE2 = molecular target: T6, TIE2 (Homo sapiens, UniProt Q02763); assay: KinomeScan; assay type: binding; conditions: read-out: % control
T6 construct: purchased DiscoveRx KINOMEscan

PIK3CA(E545A) = molecular target: T7, PIK3CA(E545A) (Homo sapiens, UniProt P42336, E545A); assay: KinomeScan; assay type: binding; conditions: read-out: % control
T7 construct: purchased DiscoveRx KINOMEscan

SBK1 = molecular target: T8, SBK1 (Homo sapiens, UniProt Q52WX2); assay: KinomeScan; assay type: binding; conditions: read-out: % control
T8 construct: purchased DiscoveRx KINOMEscan

GRK7 = molecular target: T9, GRK7 (Homo sapiens, UniProt Q8WTQ7); assay: KinomeScan; assay type: binding; conditions: read-out: % control
T9 construct: purchased DiscoveRx KINOMEscan

CIT = molecular target: T10, CIT (Homo sapiens, UniProt O14578); assay: KinomeScan; assay type: binding; conditions: read-out: % control
T10 construct: purchased DiscoveRx KINOMEscan

SRPK3 = molecular target: T11, SRPK3 (Homo sapiens, UniProt Q9UPE1); assay: KinomeScan; assay type: binding; conditions: read-out: % control
T11 construct: purchased DiscoveRx KINOMEscan

EPHA2 = molecular target: T12, EPHA2 (Homo sapiens, UniProt P29317); assay: KinomeScan; assay type: binding; conditions: read-out: % control
T12 construct: purchased DiscoveRx KINOMEscan

ACVR2A = molecular target: T13, ACVR2A (Homo sapiens, UniProt P27037); assay: KinomeScan; assay type: binding; conditions: read-out: % control
T13 construct: purchased DiscoveRx KINOMEscan

FGFR1 = molecular target: T14, FGFR1 (Homo sapiens, UniProt P11362); assay: KinomeScan; assay type: binding; conditions: read-out: % control
T14 construct: purchased DiscoveRx KINOMEscan

MYLK2 = molecular target: T15, MYLK2 (Homo sapiens, UniProt Q9H1R3); assay: KinomeScan; assay type: binding; conditions: read-out: % control
T15 construct: purchased DiscoveRx KINOMEscan

PFTK1 = molecular target: T16, PFTK1 (Homo sapiens, UniProt O94921); assay: KinomeScan; assay type: binding; conditions: read-out: % control
T16 construct: purchased DiscoveRx KINOMEscan

TNNI3K = molecular target: T17, TNNI3K (Homo sapiens, UniProt Q59H18); assay: KinomeScan; assay type: binding; conditions: read-out: % control
T17 construct: purchased DiscoveRx KINOMEscan

SRPK1 = molecular target: T18, SRPK1 (Homo sapiens, UniProt Q96SB4); assay: KinomeScan; assay type: binding; conditions: read-out: % control
T18 construct: purchased DiscoveRx KINOMEscan

ADCK3 = molecular target: T19, ADCK3 (Homo sapiens, UniProt Q8NI60); assay: KinomeScan; assay type: binding; conditions: read-out: % control
T19 construct: purchased DiscoveRx KINOMEscan

PLK1 = molecular target: T20, PLK1 (Homo sapiens, UniProt P53350); assay: KinomeScan; assay type: binding; conditions: read-out: % control
T20 construct: purchased DiscoveRx KINOMEscan

TAOK2 = molecular target: T21, TAOK2 (Homo sapiens, UniProt Q9UL54); assay: KinomeScan; assay type: binding; conditions: read-out: % control
T21 construct: purchased DiscoveRx KINOMEscan

CLK1 = molecular target: T22, CLK1 (Homo sapiens, UniProt P49759); assay: KinomeScan; assay type: binding; conditions: read-out: % control
T22 construct: purchased DiscoveRx KINOMEscan

TBK1 = molecular target: T23, TBK1 (Homo sapiens, UniProt Q9UHD2); assay: KinomeScan; assay type: binding; conditions: read-out: % control
T23 construct: purchased DiscoveRx KINOMEscan

BaF3-FL-EGFR-L858R-T790M = assay: Anti-proliferation, BaF3 isogenic cell lines (CellTiter-Glo); assay type: cell-based; conditions: Mus musculus, 72 hours, triplet testing
[1] = molecular target: T24, RPS6KA4(Kin.Dom.1-N-terminal) (Homo sapiens, UniProt O75676); assay: KinomeScan; assay type: binding; conditions: read-out: % control
T24 construct: RPS6KA4(Kin.Dom.1-N-terminal); purchased DiscoveRx KINOMEscan

OSR1 = molecular target: T25, OSR1 (Homo sapiens, UniProt O95747); assay: KinomeScan; assay type: binding; conditions: read-out: % control
T25 construct: purchased DiscoveRx KINOMEscan

[2] = system: NSCLC cell lines (H1975, HCC827, PC9, H3255; EGFR wt lines); assay: Apoptosis effect examination (Caspase-3 and PARP cleavage); assay type: cell-based, human
Excerpt: We then examined CHMFL-EGFR-26's effect on cell cycle progression and apoptosis.
Cells were then washed in PBS and lysed in cell lysis buffer. PARP, Caspase-3, GAPDH antibodies were used for immunoblotting.

RIOK2 = molecular target: T26, RIOK2 (Homo sapiens, UniProt Q9BVS4); assay: KinomeScan; assay type: binding; conditions: read-out: % control
T26 construct: purchased DiscoveRx KINOMEscan

FLT1 = molecular target: T27, FLT1 (Homo sapiens, UniProt P17948); assay: KinomeScan; assay type: binding; conditions: read-out: % control
T27 construct: purchased DiscoveRx KINOMEscan

[3] = molecular target: T28, ABL1(H396P)-nonphosphorylated (Homo sapiens, UniProt P00519, H396P); assay: KinomeScan; assay type: binding; conditions: read-out: % control
T28 construct: purchased DiscoveRx KINOMEscan

KIT(D816V) = molecular target: T29, KIT(D816V) (Homo sapiens, UniProt P10721, D816V); assay: KinomeScan; assay type: binding; conditions: read-out: % control
T29 construct: purchased DiscoveRx KINOMEscan

NDR2 = molecular target: T30, NDR2 (Homo sapiens, UniProt Q9Y2H1); assay: KinomeScan; assay type: binding; conditions: read-out: % control
T30 construct: purchased DiscoveRx KINOMEscan

FLT3(D835H) = molecular target: T31, FLT3(D835H) (Homo sapiens, UniProt P36888, D835H); assay: KinomeScan; assay type: binding; conditions: read-out: % control
T31 construct: purchased DiscoveRx KINOMEscan

MARK2 = molecular target: T32, MARK2 (Homo sapiens, UniProt Q7KZI7); assay: KinomeScan; assay type: binding; conditions: read-out: % control
T32 construct: purchased DiscoveRx KINOMEscan

MAPKAPK2 = molecular target: T33, MAPKAPK2 (Homo sapiens, UniProt P49137); assay: KinomeScan; assay type: binding; conditions: read-out: % control
T33 construct: purchased DiscoveRx KINOMEscan

EGFR(L858R) = molecular target: T34, EGFR(L858R) (Homo sapiens, UniProt P00533, L858R); assay: KinomeScan; assay type: binding; conditions: read-out: % control
T34 construct: purchased DiscoveRx KINOMEscan

TNK2 = molecular target: T35, TNK2 (Homo sapiens, UniProt Q07912); assay: KinomeScan; assay type: binding; conditions: read-out: % control
T35 construct: purchased DiscoveRx KINOMEscan

BaF3-FL-EGFR-del19-T790M = assay: Anti-proliferation, BaF3 isogenic cell lines (CellTiter-Glo); assay type: cell-based; conditions: Mus musculus, 72 hours, triplet testing
PRKR = molecular target: T36, PRKR (Homo sapiens, UniProt P19525); assay: KinomeScan; assay type: binding; conditions: read-out: % control
T36 construct: purchased DiscoveRx KINOMEscan

ALK(L1196M) = molecular target: T37, ALK(L1196M) (Homo sapiens, UniProt Q9UM73, L1196M); assay: KinomeScan; assay type: binding; conditions: read-out: % control
T37 construct: purchased DiscoveRx KINOMEscan

STK39 = molecular target: T38, STK39 (Homo sapiens, UniProt Q9UEW8); assay: KinomeScan; assay type: binding; conditions: read-out: % control
T38 construct: purchased DiscoveRx KINOMEscan

T11 sequence (Q9UPE1 whole entry): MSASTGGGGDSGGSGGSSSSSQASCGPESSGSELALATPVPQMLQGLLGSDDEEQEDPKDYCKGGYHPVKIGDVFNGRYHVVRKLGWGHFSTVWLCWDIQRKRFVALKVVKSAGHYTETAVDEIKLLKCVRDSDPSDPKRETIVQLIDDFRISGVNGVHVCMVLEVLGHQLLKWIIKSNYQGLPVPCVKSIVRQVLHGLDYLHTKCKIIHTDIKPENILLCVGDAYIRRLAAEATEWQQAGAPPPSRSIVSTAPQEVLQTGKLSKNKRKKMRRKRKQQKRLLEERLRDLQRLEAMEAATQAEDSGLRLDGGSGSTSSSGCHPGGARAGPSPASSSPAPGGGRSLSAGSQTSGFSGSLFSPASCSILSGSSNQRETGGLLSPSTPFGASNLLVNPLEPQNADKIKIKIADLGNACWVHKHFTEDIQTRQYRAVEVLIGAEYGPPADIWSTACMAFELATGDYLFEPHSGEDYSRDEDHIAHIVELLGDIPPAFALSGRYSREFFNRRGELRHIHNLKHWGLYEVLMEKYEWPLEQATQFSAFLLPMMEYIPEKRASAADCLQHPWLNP
T37 sequence (Q9UM73 19-1620 L1196M): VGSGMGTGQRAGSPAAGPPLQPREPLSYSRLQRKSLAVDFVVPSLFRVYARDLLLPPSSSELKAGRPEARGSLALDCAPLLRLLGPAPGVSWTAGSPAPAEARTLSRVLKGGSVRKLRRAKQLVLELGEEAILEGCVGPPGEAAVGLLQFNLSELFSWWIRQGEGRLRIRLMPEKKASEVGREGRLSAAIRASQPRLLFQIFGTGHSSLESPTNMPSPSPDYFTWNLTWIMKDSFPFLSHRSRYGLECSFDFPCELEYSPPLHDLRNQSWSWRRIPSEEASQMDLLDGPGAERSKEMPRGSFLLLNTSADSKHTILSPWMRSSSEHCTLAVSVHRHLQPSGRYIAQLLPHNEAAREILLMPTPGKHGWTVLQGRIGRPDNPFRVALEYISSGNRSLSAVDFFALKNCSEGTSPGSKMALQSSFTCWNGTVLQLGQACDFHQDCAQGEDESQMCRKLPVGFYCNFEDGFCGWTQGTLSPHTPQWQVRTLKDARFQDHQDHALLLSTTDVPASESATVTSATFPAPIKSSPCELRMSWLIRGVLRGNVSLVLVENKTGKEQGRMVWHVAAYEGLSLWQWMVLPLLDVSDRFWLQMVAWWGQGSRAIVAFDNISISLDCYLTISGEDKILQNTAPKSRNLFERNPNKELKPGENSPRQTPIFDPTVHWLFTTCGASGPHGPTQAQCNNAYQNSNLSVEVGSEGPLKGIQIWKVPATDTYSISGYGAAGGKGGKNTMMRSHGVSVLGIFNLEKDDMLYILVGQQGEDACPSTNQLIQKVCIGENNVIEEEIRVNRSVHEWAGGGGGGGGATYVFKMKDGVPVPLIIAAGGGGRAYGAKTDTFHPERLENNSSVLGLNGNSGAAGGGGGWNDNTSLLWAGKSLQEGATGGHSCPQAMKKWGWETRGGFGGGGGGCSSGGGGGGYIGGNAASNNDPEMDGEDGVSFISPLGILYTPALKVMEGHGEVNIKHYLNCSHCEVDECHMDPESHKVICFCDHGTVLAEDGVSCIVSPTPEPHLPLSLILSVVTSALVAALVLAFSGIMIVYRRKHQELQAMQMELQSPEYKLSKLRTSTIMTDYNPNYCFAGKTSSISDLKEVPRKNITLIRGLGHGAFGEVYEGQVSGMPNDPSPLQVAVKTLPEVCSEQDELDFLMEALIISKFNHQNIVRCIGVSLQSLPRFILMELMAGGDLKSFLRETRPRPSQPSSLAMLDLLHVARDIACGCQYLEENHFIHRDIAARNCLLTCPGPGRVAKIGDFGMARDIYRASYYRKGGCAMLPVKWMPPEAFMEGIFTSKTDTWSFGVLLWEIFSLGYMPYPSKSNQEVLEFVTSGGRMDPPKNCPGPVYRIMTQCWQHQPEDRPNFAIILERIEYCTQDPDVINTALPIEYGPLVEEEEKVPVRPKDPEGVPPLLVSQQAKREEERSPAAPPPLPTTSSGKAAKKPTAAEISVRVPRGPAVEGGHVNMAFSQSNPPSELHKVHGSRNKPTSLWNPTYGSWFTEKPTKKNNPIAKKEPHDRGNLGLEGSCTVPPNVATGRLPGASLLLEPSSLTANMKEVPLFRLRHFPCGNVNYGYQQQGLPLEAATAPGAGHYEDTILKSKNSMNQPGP
T29 sequence (P10721 26-976 D816V): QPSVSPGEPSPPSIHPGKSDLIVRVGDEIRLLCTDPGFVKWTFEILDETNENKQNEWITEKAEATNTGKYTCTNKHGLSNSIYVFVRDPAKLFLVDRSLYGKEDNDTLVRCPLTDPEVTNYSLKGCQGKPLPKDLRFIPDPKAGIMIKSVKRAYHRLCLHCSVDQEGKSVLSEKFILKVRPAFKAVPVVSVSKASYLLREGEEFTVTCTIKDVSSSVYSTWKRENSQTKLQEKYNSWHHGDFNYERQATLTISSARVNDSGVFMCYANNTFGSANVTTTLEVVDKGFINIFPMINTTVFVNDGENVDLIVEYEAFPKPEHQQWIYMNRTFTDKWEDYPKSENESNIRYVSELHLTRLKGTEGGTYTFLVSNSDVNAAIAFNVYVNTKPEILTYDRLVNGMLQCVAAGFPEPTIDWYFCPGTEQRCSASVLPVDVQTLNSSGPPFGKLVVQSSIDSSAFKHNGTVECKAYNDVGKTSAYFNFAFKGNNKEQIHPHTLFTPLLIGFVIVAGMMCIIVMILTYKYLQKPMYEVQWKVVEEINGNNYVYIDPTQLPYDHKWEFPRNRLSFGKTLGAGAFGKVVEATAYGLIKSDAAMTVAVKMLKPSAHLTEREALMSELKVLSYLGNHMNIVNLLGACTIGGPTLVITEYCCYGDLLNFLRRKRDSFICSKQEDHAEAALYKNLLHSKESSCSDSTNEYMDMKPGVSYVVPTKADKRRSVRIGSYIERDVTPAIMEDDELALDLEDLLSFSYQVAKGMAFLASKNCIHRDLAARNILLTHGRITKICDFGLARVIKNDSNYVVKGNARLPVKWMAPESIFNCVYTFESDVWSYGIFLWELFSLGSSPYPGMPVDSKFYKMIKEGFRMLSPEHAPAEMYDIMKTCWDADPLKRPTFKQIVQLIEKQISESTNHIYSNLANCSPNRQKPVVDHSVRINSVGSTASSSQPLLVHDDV
T25 sequence (O95747 whole entry): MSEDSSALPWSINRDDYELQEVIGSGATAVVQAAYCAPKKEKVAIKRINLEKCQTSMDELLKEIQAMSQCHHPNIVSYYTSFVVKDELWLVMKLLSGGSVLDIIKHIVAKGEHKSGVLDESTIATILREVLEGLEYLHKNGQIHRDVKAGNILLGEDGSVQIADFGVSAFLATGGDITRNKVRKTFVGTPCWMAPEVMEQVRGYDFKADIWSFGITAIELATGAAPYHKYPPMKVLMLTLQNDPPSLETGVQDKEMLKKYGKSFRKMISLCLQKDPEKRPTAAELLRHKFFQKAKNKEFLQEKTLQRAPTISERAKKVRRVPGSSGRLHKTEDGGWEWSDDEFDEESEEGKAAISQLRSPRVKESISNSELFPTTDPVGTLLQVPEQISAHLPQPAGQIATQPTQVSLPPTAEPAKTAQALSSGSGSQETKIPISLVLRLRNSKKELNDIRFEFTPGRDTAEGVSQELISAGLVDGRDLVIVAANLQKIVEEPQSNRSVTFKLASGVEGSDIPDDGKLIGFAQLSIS
T36 sequence (P19525 whole entry): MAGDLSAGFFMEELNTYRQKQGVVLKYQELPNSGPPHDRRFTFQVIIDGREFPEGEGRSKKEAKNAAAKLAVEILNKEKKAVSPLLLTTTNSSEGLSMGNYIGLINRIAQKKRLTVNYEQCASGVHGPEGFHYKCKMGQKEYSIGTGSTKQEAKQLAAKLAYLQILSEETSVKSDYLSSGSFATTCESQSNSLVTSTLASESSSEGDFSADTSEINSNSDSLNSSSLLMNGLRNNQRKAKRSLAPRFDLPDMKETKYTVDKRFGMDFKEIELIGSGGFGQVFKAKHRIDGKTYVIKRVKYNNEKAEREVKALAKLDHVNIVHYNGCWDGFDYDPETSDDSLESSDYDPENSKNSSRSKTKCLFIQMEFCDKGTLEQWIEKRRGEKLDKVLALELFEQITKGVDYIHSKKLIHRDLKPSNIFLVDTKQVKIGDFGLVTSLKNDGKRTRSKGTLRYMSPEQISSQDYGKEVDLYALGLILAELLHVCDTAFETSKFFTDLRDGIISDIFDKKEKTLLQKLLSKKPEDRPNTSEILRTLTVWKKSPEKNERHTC
T17 sequence (Q59H18 whole entry): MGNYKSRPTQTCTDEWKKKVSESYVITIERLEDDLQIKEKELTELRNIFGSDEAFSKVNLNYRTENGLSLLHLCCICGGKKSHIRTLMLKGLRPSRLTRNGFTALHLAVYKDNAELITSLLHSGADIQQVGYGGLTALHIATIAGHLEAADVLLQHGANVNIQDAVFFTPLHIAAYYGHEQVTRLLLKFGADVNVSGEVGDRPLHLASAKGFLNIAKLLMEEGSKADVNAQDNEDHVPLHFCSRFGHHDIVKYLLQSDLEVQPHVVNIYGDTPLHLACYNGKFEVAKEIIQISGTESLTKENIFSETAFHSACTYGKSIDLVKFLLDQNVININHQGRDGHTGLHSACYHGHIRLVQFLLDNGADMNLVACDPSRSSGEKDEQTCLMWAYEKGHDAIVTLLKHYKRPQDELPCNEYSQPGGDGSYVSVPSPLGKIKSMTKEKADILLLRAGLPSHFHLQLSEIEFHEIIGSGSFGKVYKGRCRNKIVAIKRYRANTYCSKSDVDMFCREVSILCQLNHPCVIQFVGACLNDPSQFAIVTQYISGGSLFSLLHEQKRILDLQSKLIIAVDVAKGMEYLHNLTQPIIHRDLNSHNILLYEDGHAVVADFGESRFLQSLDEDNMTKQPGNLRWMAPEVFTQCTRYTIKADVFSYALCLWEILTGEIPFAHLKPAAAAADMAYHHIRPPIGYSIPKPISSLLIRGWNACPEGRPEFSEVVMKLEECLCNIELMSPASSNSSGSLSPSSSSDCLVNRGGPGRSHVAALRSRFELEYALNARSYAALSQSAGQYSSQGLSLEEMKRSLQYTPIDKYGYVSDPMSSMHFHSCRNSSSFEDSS

Work on C=CC(=O)N1CCC[C@@H](n2nc(-c3ccc(OCc4cccc(C)n4)c(Cl)c3)c3c(N)ncnc32)C1 [CHMFL-EGFR-26] yielded a remaining binding at 1 µM (RIPK4) of 96%, a remaining binding at 1 µM (PAK4) of 94% and a remaining binding at 1 µM (WNK2) of 92%. For the same compound, the remaining binding at 1 µM (ROCK2) was 100%, the remaining binding at 1 µM (NEK10) was 99% and the remaining binding at 1 µM (TIE2) was 78%. The remaining binding at 1 µM (PIK3CA(E545A)) was 100%, the remaining binding at 1 µM (SBK1) was 100% and the remaining binding at 1 µM (GRK7) was 100%. It also gave a remaining binding at 1 µM (CIT) of 90%, a remaining binding at 1 µM (SRPK3) of 90% and a remaining binding at 1 µM (EPHA2) of 100%. The remaining binding at 1 µM (ACVR2A) was 89%, the remaining binding at 1 µM (FGFR1) was 100% and the remaining binding at 1 µM (MYLK2) was 100%. For the same compound, the remaining binding at 1 µM (PFTK1) was 100%, the remaining binding at 1 µM (TNNI3K) was 89% and the remaining binding at 1 µM (SRPK1) was 100%. It also gave a remaining binding at 1 µM (ADCK3) of 100%, a remaining binding at 1 µM (PLK1) of 100% and a remaining binding at 1 µM (TAOK2) of 78%. The remaining binding at 1 µM (CLK1) was 94%, the remaining binding at 1 µM (TBK1) was 100% and the GI50 (BaF3-FL-EGFR-L858R-T790M) was 6 nM. The remaining binding at 1 µM [1] was 11%, the remaining binding at 1 µM (OSR1) was 95% and the “Caspase-3 and PARP cleavage (apoptosis)” value ([2]; EGFR wt NSCLC cell lines, 72hrs) was “no cleaved Caspase-3 and PARP detected”. For the same compound, the “Caspase-3 and PARP cleavage (apoptosis)” value ([2]; H1975, HCC827, PC9 and H3255, 30nM, 24hrs) was “sufficient to induce Caspase-3 and PARP cleavage”, the remaining binding at 1 µM (RIOK2) was 100% and the remaining binding at 1 µM (FLT1) was 93%. It also gave a remaining binding at 1 µM [3] of 100%, a remaining binding at 1 µM (KIT(D816V)) of 100% and a remaining binding at 1 µM (NDR2) of 100%. It also gave a remaining binding at 1 µM (FLT3(D835H)) of 100%, a remaining binding at 1 µM (MARK2) of 95% and a remaining binding at 1 µM (MAPKAPK2) of 89%. For the same compound, the remaining binding at 1 µM (EGFR(L858R)) was 2.5%, the remaining binding at 1 µM (TNK2) was 93% and the GI50 (BaF3-FL-EGFR-del19-T790M) was under 0.3 nM. The remaining binding at 1 µM (PRKR) was 80%, the remaining binding at 1 µM (ALK(L1196M)) was 100% and the remaining binding at 1 µM (STK39) was 92%.
